Experimental data: patent publication US11421237B2, “Pair of amino acid sequences for monitoring formation of TDP-43 oligomer in living cells via bimolecular fluorescence complementation” (KOREA INSTITUTE OF SCIENCE AND TECHNOLOGY, priority 2019, dated 2022)
Several values for one entry are separate records, joined by “and”; a condition that tells them apart may be missing. Equal values may be shown once. Entries after “also recorded” stand apart in the source; their conditions may differ. Peptide text beside a SMILES is read from it. * marks the point of attachment. Cbz = O=C(OCc1ccccc1)*

How the values were obtained:
Format in all cases: cell-based, human
[1] = test system: TDP-43-BiFC cells; experiment: BiFC fluorescence analysis of TDP-43 oligomer formation in TDP-43-BiFC cells (384-well, Operetta); conditions: 48 hours at 37° C.; for increase of BiFC fluorescence in the cells compared to untreated cells: forskolin 30 μM, scriptaid 3 μM, thapsigargin 1 μM, ionomycin 1 μM, Cu^2+ 1 μM, Zn^2+ 30 μM; for change in BiFC fluorescence of TDP-43 (in words): MG132 5 μM, α-synuclein 5 μg/ml, tauK18^P301L 5 μg/ml
Procedure: In order to develop a TDP-43-BiFC cell line, the TDP-43-VN173 and TDP-43-VC155 constructs shown in FIG. 2 were co-transfected into HEK293 BiFC cells. For establishment of a stable cell line, the transfected cells were selected by culture with growth medium containing 100 μg/mL geneticin (G418; Sigma). In addition, the selected cells were sorted using FACSAria (BD Bioscience) into cells showing fluorescence. The sorted TDP-43-BiFC cells were kept in DMEM medium containing 10% FBS, 100 units/mL penicillin, 100 μg/mL streptomycin and 100 μg/mL G418 in a humidified atmosphere at 37° C. under 5% CO2.
The TDP-43-BiFC cells prepared in Example 1 above were treated with a compound that induces PTMs of protein, a compound that ER stress in cells, amyloid protein, metal ions, or the like, and changes in BiFC fluorescence in the cells were examined. Specifically, for fluorescence analysis, the TDP-43-BiFC cells were grown in a 384-well plate and treated with each of forskolin (30 μM), scriptaid (3 μM), thapsigargin (1 μM), ionomycin (1 μM), MG132 (5 μM), α-synuclein (5 μg/ml), tauK18^P301L (5 μg/ml), Cu^2+ (1 μM) and Zn^2+ (30 μM), followed by culture at 37° C. for 48 hours. Fluorescence images were obtained using Operetta® (PerkinElmer), and the fluorescence intensity in the nucleus and the cytoplasmic fluorescence intensity were analyzed using Harmony3.1 software (PerkinElmer).

[2] = test system: TDP-43-BiFC cells; experiment: Isolation of TDP-43 oligomer with GFP-trap beads and immunoblot with anti-TDP-43 antibody; conditions: 24 hours at 37° C., forskolin 30 μM, scriptaid 1 μM, thapsigargin 0.5 μM, ionomycin 1 μM, SDS-PAGE, immunoblot
Procedure: Lysates of the TDP-43-BiFC cells treated with each of the four drugs in Example 3 and a lysate of untreated cells were prepared and TDP-43 oligomers were isolated therefrom. Specifically, TDP-43-BiFC cells were grown in a 6-well plate, treated with each of forskolin (30 μM), scriptaid (1 μM), thapsigargin (0.5 μM) and ionomycin (1 μM), and cultured at 37° C. for 24 hours, and then lysates of the cells were prepared. GFP-trap beads shown in FIG. 5a were added to the lysates which were then incubated at 4° C. for 16 hours, and the oligomerized TDP-43 protein was isolated. The isolated protein was separated by SDS-PAGE, and immunoblot analysis was performed using anti-TDP-43 antibody.

[3] = test system: TDP-43-BiFC cells; experiment: Intracellular distribution of BiFC fluorescence, high-magnification imaging; conditions: treated as in Example 2 (scriptaid 3 μM, 48 hours); 1000× magnification
Text: Next, the pattern of intracellular distribution by an increase in TDP-43 oligomer formation was examined. Specifically, TDP-43 formation was induced in the same manner as Example 2 above, and then the whole plate was automatically imaged using Operetta®, and high-resolution images were obtained using a Nikon Eclipse inverted microscope (Ti, Nikon) at 1000× magnification.

Row | Molecule | increase of BiFC fluorescence in the cells compared to untreated cells [1] | change in BiFC fluorescence of TDP-43 (in words) [1] | further results
1 | [Cu+2] [Cu^2+] | about 2 fold | – | –
2 | CC(C)C[C@@H](C=O)NC(=O)[C@H](CC(C)C)NC(=O)[C@H](CC(C)C)NC(=O)OCc1ccccc1 [MG132] (Cbz-Leu-Leu-Leu-aldehyde) | – | no change | –
3 | [Zn+2] [Zn^2+] | about 2 fold | – | –
4 | C[C@H](CCC(=O)O)C[C@H](C)C[C@H](C)C(=O)/C=C(\O)[C@H](C)C[C@H](C)C/C=C/[C@@H](C)[C@@H](O)[C@@H](C)[C@@H](O)C[C@@H]1CC[C@@](C)([C@H]2CC[C@@](C)([C@@H](C)O)O2)O1 [ionomycin] | 7 fold | – | –
5 | O=C(CCCCCN1C(=O)c2cccc3cccc(c23)C1=O)NO [scriptaid] | 36 fold and 48 fold | – | amount of detected oligomerized TDP-43 protein compared to untreated cells [2]: largest amount; distribution of BiFC fluorescence in nucleus and cytoplasm [3]: greatly increased the fluorescence not only in the nucleus but also in the cytoplasm; also recorded: significantly increased not only in the nucleus but also in the cytoplasm
6 | C/C=C(/C)C(=O)O[C@H]1C(C)=C2[C@H]([C@@H]1OC(=O)CCCCCCC)[C@@](C)(OC(C)=O)C[C@H](OC(=O)CCC)[C@@]1(O)[C@H]2OC(=O)[C@@]1(C)O [thapsigargin] | 31 fold | – | –
7 | tauK18^P301L | – | did not increase | –
8 | α-synuclein | – | did not increase | –
